{
  "source": "patent US6214537A",
  "about": "“Synthetic peptides and mixtures thereof for detecting HIV antibodies” (Biochem Immunosystems, Inc., priority 1988, dated 2001)",
  "key": {"[1]": {"system": "HIV-1 antibodies", "details": "cited from earlier work; for sensitivity: HIV-1 seropositive samples, literature"}, "[2]": {"experiment": "State of peptide in coating solution (HPLC, Ellman's test)", "type": "physicochemical", "from_the_text": "(§1) Even though results presented in TABLE 5 clearly show the superiority of cyclic peptides over their linear counterpart in detecting HIV-1-antibodies, that increased sensitivity could have been underestimated because of probable cyclization and polymerization of the linear peptide after solubilization in a carbonate buffer (pH 9.6). That experiment was repeated with the linear 87 and cyclic 87c peptides dissolved in a carbonate buffer (pH 9.6) as before and also in 10% acetic acid (pH 2.7). […] It is believed that cydization and polymerization also occured in the wells of the microtiter plates although the exact proportion of cyclic peptide bound to the plates versus linear has not been as yet determined."}, "[3]": {"system": "HIV-1 antibodies", "experiment": "ELISA, single peptides identifying HIV-1 positive sera", "type": "binding, human", "details": "ELISA, single peptide", "experimental": "(§2) According to this test a peptide or a peptide mixture of the present invention is adsorbed onto the wells of a microtiter plate. The wells are then treated with sera to be tested. After washing, anti-human IgG labeled with peroxidase is added to the wells. The determination of the peroxidase is performed with a corresponding substrate, e.g. with o-phenylene diamine. Also in this procedure the peroxidase can be exchanged by another label, e.g. by a radioactive or fluorescence label.\n(§3) Each well of the microtiter plate is saturated with 100 μl of a solution containing a peptide or mixture of peptides (5 μg/ml) and left overnight. The wells are emptied and washed twice with a washing buffer (Tris, 0.043M; NaCl, 0.5M;thimerosal, 0.01% w/v; Tween 20, 0.05% v/v; pH 7.4). The wells are then saturated with 0.35 ml of washing buffer for 1 hr. at 37° C. and washed once with the same buffer. Serum samples to be analyzed are diluted with specimen buffer (washing buffer plus casein, 0.05% w/v). The wells are rinsed with washing buffer prior to the addition of the diluted serum sample (0.1 ml). These are left to incubate for 1 hr. at room temperature. The wells are then emptied, washed twice rapidly and then once for two minutes with washing buffer. […] The wells are then emptied and washed twice rapidly with washing buffer and then five times in which the buffer was in contact with the well 2 minutes per washing.\n(§4) The substrate solution (3,3', 5,5'-tetramethylbenzidine, 8 mg per ml of DMSO) is diluted with 100 volumes 0.1M citrate-acetate buffer, pH 5.6 containing 0.1% v/v of 30% H2 O2 and added to each well (0.1 ml per well). After 10 minutes the contents of each well is treated with 0.1 ml 2N H2 SO4 and the optical density read at 450 nm. All determinations are done in duplicate."}, "[4]": {"system": "antibodies specific to HIV-1", "experiment": "ELISA serum titers, plates coated with cyclic 87c versus linear 87", "type": "binding, human", "from_the_text": "as §1\n(§5) Plates used in this experiment were coated with solutions of peptides at 10 μg/ml. (Experimental results of TABLE 5 were obtained with plates coated with peptides at 0,5 μg/ml). Four different HIV-1 positive serum samples were serially diluted and their titers determined. The titer was defined as the serum dilution giving an absorbancy reading of 1:0 in the conditions of the ELISA procedure already described.\nThe ratios of sensitivities measured with the cyclic peptide over the linear 87 peptide vary between 1:3 and 2:2 with an average of 1:8. These ratios are even larger, varying from 3:0 to 4:5, when the sensitivity of the ELISA test using the cyclic 87c peptide is compared using conditions (acidic pH) where the linear 87 peptide remains linear and is not allowed to cyclize or polymerize."}, "[5]": {"system": "HIV-1-antibodies", "experiment": "ELISA, cyclic versus non-cyclic peptides, sera at various dilutions", "type": "binding, human", "experimental": "TABLE 5 is provided to illustrate the sensitivity of cyclic versus noncyclic peptides in the ELISA test by comparing the results of some sera at various dilutions.\nas §5, §3, §4"}, "[6]": {"system": "HIV-2 antibodies", "experiment": "ELISA, single peptides identifying HIV-2 positive sera", "type": "binding, human", "details": "5 tested", "experimental": "as §2, with “A preferred convenient and classical technique for the determination of antibodies against AIDS virus using a peptide or a peptide mixture of the present invention is an enzyme-linked immunosorbent assay (ELISA). According” for “According”\nThe cyclic peptides of the present invention and their mixtures with one or more linear peptides were tested in accordance with the ELISA test described previously against a variety of sera, some of which were confirmed positive and others which were confirmed negative.\nTABLE 4 provides the results of single peptides which were individually evaluated in identifying known HIV-2 positive sera.\nas §3, §4"}},
  "data": [
    {"molecule": "SGKLIC", "values": [
      {"measurement": "immunoreactivity with HIV-1 positive sera", "setting": "[1]; 22 HIV-1 positive sera tested, Gnann et al.", "result": "not immunoreactive"}
    ]},
    {"molecule": "7-mer peptide: SGKLIC with a cysteine residue added to the N-terminus (605-611), Gnann et al.", "values": [
      {"measurement": "sensitivity", "setting": "[1]", "result": 48, "unit": "%"}
    ]},
    {"molecule": "NH2 -RILAVERYLKDQQLLGIWGCSGKLICTTAVPWNAS-COOH [Peptide 87]", "values": [
      {"measurement": "state of peptide in solution (HPLC, Ellman's test)", "setting": "[2]; 10% acetic acid (pH 2.7)", "result": "remained linear"},
      {"measurement": "state of peptide in solution (HPLC)", "setting": "[2]; carbonate buffer (pH 9.6), room temperature", "result": "underwent cyclization and polymerization"},
      {"measurement": "% Positive Sera correctly Identified", "setting": "[3]", "result": 99, "unit": "%"},
      {"measurement": "serum titer", "setting": "[4]; coating buffer 10% Acetic Acid (pH 2.7), serum M-5, coated at 10 μg/ml", "result": 4500},
      {"measurement": "serum titer", "setting": "[4]; coating buffer 10% Acetic Acid (pH 2.7), serum M-7, coated at 10 μg/ml", "result": 2300},
      {"measurement": "serum titer", "setting": "[4]; coating buffer 10% Acetic Acid (pH 2.7), serum M-8, coated at 10 μg/ml", "result": 1400},
      {"measurement": "serum titer", "setting": "[4]; coating buffer 10% Acetic Acid (pH 2.7), serum M-16, coated at 10 μg/ml", "result": 15000},
      {"measurement": "serum titer", "setting": "[4]; coating buffer Carbonate Bicarbonate 0.1M (pH 9.6), serum M-5, coated at 10 μg/ml", "result": 10500},
      {"measurement": "serum titer", "setting": "[4]; coating buffer Carbonate Bicarbonate 0.1M (pH 9.6), serum M-7, coated at 10 μg/ml", "result": 6000},
      {"measurement": "serum titer", "setting": "[4]; coating buffer Carbonate Bicarbonate 0.1M (pH 9.6), serum M-8, coated at 10 μg/ml", "result": 2900},
      {"measurement": "serum titer", "setting": "[4]; coating buffer Carbonate Bicarbonate 0.1M (pH 9.6), serum M-16, coated at 10 μg/ml", "result": 33000},
      {"measurement": "ELISA optical density", "setting": "[5]; serum 87V103, dilution 1/50", "result": 0.005, "unit": "optical density units"},
      {"measurement": "ELISA optical density", "setting": "[5]; serum 1428, dilution 1/50", "result": 1.463, "unit": "optical density units"},
      {"measurement": "ELISA optical density", "setting": "[5]; serum M-5, dilution 1/50", "result": 1.809, "unit": "optical density units"},
      {"measurement": "ELISA optical density", "setting": "[5]; serum M-5, dilution 1/100", "result": 1.685, "unit": "optical density units"},
      {"measurement": "ELISA optical density", "setting": "[5]; serum M-5, dilution 1/200", "result": 1.513, "unit": "optical density units"},
      {"measurement": "ELISA optical density", "setting": "[5]; serum M-5, dilution 1/400", "result": 1.418, "unit": "optical density units"},
      {"measurement": "ELISA optical density", "setting": "[5]; serum M-5, dilution 1/800", "result": 1.012, "unit": "optical density units"},
      {"measurement": "ELISA optical density", "setting": "[5]; serum M-7, dilution 1/50", "result": 1.504, "unit": "optical density units"},
      {"measurement": "ELISA optical density", "setting": "[5]; serum M-7, dilution 1/100", "result": 1.329, "unit": "optical density units"},
      {"measurement": "ELISA optical density", "setting": "[5]; serum M-7, dilution 1/200", "result": 1.184, "unit": "optical density units"},
      {"measurement": "ELISA optical density", "setting": "[5]; serum M-7, dilution 1/400", "result": 0.923, "unit": "optical density units"},
      {"measurement": "ELISA optical density", "setting": "[5]; serum M-7, dilution 1/800", "result": 0.571, "unit": "optical density units"},
      {"measurement": "ELISA optical density", "setting": "[5]; serum M-8, dilution 1/50", "result": 1.390, "unit": "optical density units"},
      {"measurement": "ELISA optical density", "setting": "[5]; serum M-8, dilution 1/100", "result": 1.087, "unit": "optical density units"},
      {"measurement": "ELISA optical density", "setting": "[5]; serum M-8, dilution 1/200", "result": 0.883, "unit": "optical density units"},
      {"measurement": "ELISA optical density", "setting": "[5]; serum M-8, dilution 1/400", "result": 0.593, "unit": "optical density units"},
      {"measurement": "ELISA optical density", "setting": "[5]; serum M-8, dilution 1/800", "result": 0.240, "unit": "optical density units"},
      {"measurement": "ELISA optical density", "setting": "[5]; serum M-16, dilution 1/50", "result": 1.846, "unit": "optical density units"},
      {"measurement": "ELISA optical density", "setting": "[5]; serum M-16, dilution 1/100", "result": 1.784, "unit": "optical density units"},
      {"measurement": "ELISA optical density", "setting": "[5]; serum M-16, dilution 1/200", "result": 1.740, "unit": "optical density units"},
      {"measurement": "ELISA optical density", "setting": "[5]; serum M-16, dilution 1/400", "result": 1.634, "unit": "optical density units"},
      {"measurement": "ELISA optical density", "setting": "[5]; serum M-16, dilution 1/800", "result": 1.537, "unit": "optical density units"}
    ]},
    {"molecule": "CC(=O)N[C@@H](CCC(N)=O)C(=O)N[C@@H](CC(=O)O)C(=O)N[C@@H](CCC(N)=O)C(=O)N[C@@H](C)C(=O)N[C@@H](CCCNC(=N)N)C(=O)N[C@@H](CC(C)C)C(=O)N[C@@H](CC(N)=O)C(=O)N[C@@H](CO)C(=O)N[C@@H](Cc1c[nH]c2ccccc12)C(=O)NCC(=O)N[C@H]1CSSC[C@@H](C(N)=O)NC(=O)[C@H](C(C)C)NC(=O)[C@H](CCC(N)=O)NC(=O)[C@H](CCCNC(=N)N)NC(=O)[C@H](Cc2ccccc2)NC(=O)[C@H](C)NC1=O", "note": "[Peptide 200]", "values": [
      {"measurement": "% Positive Sera correctly Identified", "setting": "[6]", "result": 100, "unit": "%"}
    ]},
    {"molecule": "SGKLICTTAVPWNAS [short synthetic peptide covering residues 606 to 620 of gp41 (HIV-1), U.S. Ser. No. 120,027]", "values": [
      {"measurement": "sensitivity", "setting": "[1]", "result": 89, "unit": "%"},
      {"measurement": "specificity (samples correctly identified)", "setting": "[1]; U.S. Ser. No. 120,027", "result": "63/63"}
    ]},
    {"molecule": "CC(C)C[C@H](NC(=O)[C@H](CCCNC(=N)N)NC(=O)[C@H](C)NC(=O)[C@H](CCC(N)=O)NC(=O)[C@H](CC(=O)O)NC(=O)[C@@H](N)CCC(N)=O)C(=O)N[C@@H](CC(N)=O)C(=O)N[C@@H](CO)C(=O)N[C@@H](Cc1c[nH]c2ccccc12)C(=O)NCC(=O)N[C@H]1CSSC[C@@H](C(=O)N[C@@H](Cc2c[nH]cn2)C(=O)N[C@H](C(=O)N[C@H](C(=O)N[C@H](C(=O)N2CCC[C@H]2C(=O)N[C@@H](Cc2c[nH]c3ccccc23)C(=O)N[C@H](C(=O)N[C@@H](CC(N)=O)C(=O)N[C@@H](CC(=O)O)C(=O)N[C@@H](CO)C(N)=O)C(C)C)C(C)C)[C@@H](C)O)[C@@H](C)O)NC(=O)[C@H](C(C)C)NC(=O)[C@H](CCC(N)=O)NC(=O)[C@H](CCCNC(=N)N)NC(=O)[C@H](Cc2ccccc2)NC(=O)[C@H](C)NC1=O", "note": "[Peptide 147]", "values": [
      {"measurement": "% Positive Sera correctly Identified", "setting": "[6]", "result": 100, "unit": "%"}
    ]}
  ]
}
